ChEMBL document CHEMBL1201862, “PubChem BioAssay data set” (2004)
Activity calls are given as the source filed them.

Key:
Paired box protein Pax-8 = Paired box protein Pax-8 (Homo sapiens, UniProt Q06710); test: inhibitors of PAX8-driven TPO luciferase reporter, dose response, RMG-I cells, cherry-pick (AID 687027); assay type: functional, cell-based;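 further: luciferase reporter driven by Pax8 target thyroperoxidase promoter measured by SteadyGlo luminescence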
[1] = target: T1, Replicative DNA helicase DnaB (Mycobacterium tuberculosis, UniProt P9WMR3); test: DnaB intein splicing inhibitors, dose response, biochemical, cell-free fluorescence (AID 449749); assay type: functional
T1 sequence (P9WMR3 whole entry): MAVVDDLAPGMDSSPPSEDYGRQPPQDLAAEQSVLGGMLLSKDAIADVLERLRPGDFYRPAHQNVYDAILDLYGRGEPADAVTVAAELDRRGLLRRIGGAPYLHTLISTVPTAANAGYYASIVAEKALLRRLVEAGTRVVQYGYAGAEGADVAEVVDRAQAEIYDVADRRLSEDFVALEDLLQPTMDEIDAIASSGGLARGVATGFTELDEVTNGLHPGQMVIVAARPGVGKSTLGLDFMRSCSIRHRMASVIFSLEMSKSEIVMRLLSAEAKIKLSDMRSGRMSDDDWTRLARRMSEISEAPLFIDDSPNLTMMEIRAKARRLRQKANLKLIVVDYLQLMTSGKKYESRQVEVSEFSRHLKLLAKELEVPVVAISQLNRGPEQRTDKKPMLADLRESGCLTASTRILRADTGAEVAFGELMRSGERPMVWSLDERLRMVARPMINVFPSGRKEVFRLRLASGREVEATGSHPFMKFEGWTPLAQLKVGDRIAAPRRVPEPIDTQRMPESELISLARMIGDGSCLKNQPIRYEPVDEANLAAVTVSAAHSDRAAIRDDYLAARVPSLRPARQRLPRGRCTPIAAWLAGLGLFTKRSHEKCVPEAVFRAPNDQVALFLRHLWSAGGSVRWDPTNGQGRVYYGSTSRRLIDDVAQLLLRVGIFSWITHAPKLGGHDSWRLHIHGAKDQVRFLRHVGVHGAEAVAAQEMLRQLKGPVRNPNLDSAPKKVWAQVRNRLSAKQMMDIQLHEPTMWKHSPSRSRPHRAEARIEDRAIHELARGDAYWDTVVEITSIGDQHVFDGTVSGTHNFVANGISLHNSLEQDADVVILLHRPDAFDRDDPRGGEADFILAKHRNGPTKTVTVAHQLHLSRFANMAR

Protein RecA = target: T2, Protein RecA (Mycobacterium tuberculosis, UniProt P9WHJ3); test: Fluorescence Cell-Free Homogeneous Dose Retest to Identify Inhibitors of RecA-Intein Splicing Activity. [Related pubchem assays (depositor defined):AID2097, AID2223, AID489010, AID492950]; assay type: functional
T2 sequence (P9WHJ3 whole entry): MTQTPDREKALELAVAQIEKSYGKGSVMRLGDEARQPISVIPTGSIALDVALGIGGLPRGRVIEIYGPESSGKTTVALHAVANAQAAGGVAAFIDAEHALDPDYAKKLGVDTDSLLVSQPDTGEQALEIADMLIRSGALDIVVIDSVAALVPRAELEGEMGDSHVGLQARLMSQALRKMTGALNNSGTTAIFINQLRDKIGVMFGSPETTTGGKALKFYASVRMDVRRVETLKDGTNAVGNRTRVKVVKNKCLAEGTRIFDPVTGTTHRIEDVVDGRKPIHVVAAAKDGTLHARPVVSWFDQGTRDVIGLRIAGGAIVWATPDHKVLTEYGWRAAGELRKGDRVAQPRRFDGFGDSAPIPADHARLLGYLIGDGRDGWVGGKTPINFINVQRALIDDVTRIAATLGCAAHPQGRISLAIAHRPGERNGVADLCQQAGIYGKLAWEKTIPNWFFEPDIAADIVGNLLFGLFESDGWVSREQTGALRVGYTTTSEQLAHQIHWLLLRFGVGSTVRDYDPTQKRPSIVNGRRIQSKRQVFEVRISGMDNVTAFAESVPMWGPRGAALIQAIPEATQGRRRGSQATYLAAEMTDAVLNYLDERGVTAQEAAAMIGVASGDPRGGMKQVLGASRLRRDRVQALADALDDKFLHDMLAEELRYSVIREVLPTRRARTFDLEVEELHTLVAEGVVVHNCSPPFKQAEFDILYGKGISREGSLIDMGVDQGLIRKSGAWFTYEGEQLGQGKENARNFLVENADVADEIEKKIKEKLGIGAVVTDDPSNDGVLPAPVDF

[2] = target: T3, Corticotropin-releasing factor receptor 2/Corticotropin-releasing factor-binding protein (Homo sapiens, UniProt P24387+Q13324); test: activators of CRF receptor 2 with binding protein – uHTS hits, confirmation (AID 602473); assay type: functional; settings: read-out: EC50_Mean
T3 sequence (Q13324 whole entry): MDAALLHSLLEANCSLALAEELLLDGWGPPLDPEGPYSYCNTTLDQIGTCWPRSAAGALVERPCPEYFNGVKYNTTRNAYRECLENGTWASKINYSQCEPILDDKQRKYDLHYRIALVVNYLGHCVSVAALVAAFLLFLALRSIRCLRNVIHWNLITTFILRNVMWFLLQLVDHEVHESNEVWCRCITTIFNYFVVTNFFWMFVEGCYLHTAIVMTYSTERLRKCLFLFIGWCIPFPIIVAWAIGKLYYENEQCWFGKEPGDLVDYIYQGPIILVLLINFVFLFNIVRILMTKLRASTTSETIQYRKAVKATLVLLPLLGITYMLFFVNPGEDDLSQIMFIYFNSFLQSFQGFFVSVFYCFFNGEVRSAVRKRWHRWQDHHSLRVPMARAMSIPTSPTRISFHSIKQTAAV
T3 sequence (P24387 whole entry): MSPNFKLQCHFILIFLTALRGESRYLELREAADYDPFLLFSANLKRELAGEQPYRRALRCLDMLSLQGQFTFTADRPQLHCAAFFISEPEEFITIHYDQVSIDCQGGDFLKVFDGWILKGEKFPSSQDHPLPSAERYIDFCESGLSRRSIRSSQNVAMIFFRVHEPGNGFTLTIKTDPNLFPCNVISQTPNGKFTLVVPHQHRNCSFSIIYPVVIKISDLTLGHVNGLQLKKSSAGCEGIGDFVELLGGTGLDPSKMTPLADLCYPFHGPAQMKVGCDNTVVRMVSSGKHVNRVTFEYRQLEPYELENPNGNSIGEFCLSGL

[3] = target: T3, Corticotropin-releasing factor receptor 2/Corticotropin-releasing factor-binding protein; test: Dose Response confirmation of uHTS hits for small molecule antagonists of the CRF-binding protein and CRF-R2 receptor complex.; assay type: functional; settings: read-out: IC50_Mean
[4] = Luminescence Cell-Based Dose Retest to Confirm Inhibitors of Cancer Stem Cells. [Related pubchem assays (depositor defined):AID2717, AID2721]; assay type: functional; settings: Homo sapiens
INS1 = test: beta cell apoptosis inhibitors, cytokine rescue, dose response, luminescence, retest (AID 449756); assay type: functional, cell-based; settings: Rattus norvegicus;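 further: cell death triggered by IL-1 beta plus TNF-alpha plus IFN-gamma mixture; protective hits raise ATP signal compared with cytokine alone wells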
[5] = Shn3 3'UTR reporter inhibitors, dose response, cell-based, Clone20 osteoblasts, firefly luciferase, cherry-picked (AID 624132); assay type: functional;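 further: firefly luciferase luminescence from reporter carrying the Shn3 3'UTR in osteoblasts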
[6] = HepG2 cell cytotoxicity, dose response, cytotoxicity control for Shn3 inhibitor project, CellTiter-Glo, cherry-picked (AID 624134); assay type: functional, cell-based
[7] = control 3'UTR Renilla luciferase suppression, dose response, counter-screen for Shn3 inhibitor project, cell-based, Clone20-Shn3RL, cherry-picked (AID 624133); assay type: functional
H4 = test: Luminescence Cell-Based Dose Response HTS to Identify Activators of 5'UTR Stem-Loop Driven Prion Protein mRNA Translation in H4 Neuroglioblastoma Cells. [Related pubchem assays: 1829 (Project Summary), 1814 (Primary HTS)]; assay type: functional; settings: Homo sapiens
[8] = Luminescence Cell-Based Dose Response HTS to Identify Activators of Luciferase Translation or Activity in H4 […] Cells. [Related pubchem assays: 1829 (Project Summary), 1814 (Primary HTS)]; assay type: functional
[9] = target: T4, Heat shock factor protein 1 (Mus musculus, UniProt P38532); test: HSF1 potentiators in luciferase reporter cells, confirmation, cell-based, NIH3T3, luminescence, dose retest (AID 435004); assay type: functional;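 further: stress induced by proteasome inhibitor MG132 added 30 min after compound; luciferase reporter driven by HSF1 response element in NIH3T3 cells; actives raise luminescence as potentiators of the MG132 stress response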
T4 sequence (P38532 whole entry): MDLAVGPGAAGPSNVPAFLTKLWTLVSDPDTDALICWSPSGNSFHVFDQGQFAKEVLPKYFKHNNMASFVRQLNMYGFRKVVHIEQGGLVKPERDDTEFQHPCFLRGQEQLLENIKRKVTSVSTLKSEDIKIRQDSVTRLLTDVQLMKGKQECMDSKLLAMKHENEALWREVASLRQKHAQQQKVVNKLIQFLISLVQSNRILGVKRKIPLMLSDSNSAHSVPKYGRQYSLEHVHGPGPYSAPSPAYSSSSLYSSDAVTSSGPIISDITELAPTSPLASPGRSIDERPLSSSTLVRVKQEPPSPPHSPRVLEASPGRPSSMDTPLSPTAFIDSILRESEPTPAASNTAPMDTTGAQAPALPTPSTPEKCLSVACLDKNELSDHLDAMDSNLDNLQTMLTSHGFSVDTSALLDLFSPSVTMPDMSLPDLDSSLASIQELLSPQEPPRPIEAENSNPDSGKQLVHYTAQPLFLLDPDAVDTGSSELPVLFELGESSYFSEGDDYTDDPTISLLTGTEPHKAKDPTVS

cells [10] = test: cells
[11] = inhibitors of intracellular T. cruzi replication, confirmation, NIH3T3 host cells, beta-gal luminescence (AID 2044); assay type: functional, cell-based;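 further: intracellular parasites grown in NIH/3T3 mouse fibroblasts as host cells; luminescent beta-galactosidase reporter signal from transgenic T. cruzi replicating inside host cells; inhibitors lower the luminescence signal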
[12] = cytotoxicity toward NIH3T3 fibroblasts, dose response, counter-screen, cell-based, ATP luminescence, mouse fibroblasts (AID 2010); assay type: functional;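 further: cells exposed to compound for about 90 hours before reading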
cells [13] = assay type: functional, cell-based
cells [14] = assay type: functional, cell-based; remark: listed apart in the source

Chain of Paired box protein Pax-8 (Q06710 whole entry): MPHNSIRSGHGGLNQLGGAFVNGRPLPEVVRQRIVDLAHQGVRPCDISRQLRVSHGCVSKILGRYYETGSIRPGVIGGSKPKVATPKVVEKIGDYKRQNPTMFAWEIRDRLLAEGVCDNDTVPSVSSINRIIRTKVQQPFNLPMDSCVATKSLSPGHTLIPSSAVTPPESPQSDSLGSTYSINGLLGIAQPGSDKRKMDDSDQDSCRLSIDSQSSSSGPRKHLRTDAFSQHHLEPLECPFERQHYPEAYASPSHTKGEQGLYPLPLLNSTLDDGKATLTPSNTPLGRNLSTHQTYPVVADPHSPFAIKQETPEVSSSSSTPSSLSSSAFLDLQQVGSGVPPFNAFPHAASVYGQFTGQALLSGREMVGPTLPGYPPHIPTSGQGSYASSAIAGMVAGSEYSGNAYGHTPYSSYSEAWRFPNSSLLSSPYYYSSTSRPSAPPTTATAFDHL

O=C(Nc1nc(-c2cccs2)c(-c2cccs2)s1)C1(c2ccccc2)CC1
AC50 (Paired box protein Pax-8): 51.1 µM (active)

CN(C)c1ccc2nsnc2c1[N+](=O)[O-]
AC50 [1]: > 380 µM (inactive)
EC50 (Protein RecA): 8.64 µM (active)

CCOC(=O)c1cc(S(=O)(=O)Nc2ccc(F)cc2F)cn1C
EC50 [2]: > 53 µM (inactive)
IC50 [3]: > 47.1 µM (inactive)

CCc1ccc(S(=O)(=O)Nc2ccc(O)c3ccccc23)cc1
AC50 [1]: 0.305 µM (active)
AC50 [4]: 5.13 µM (active)
AC50 (INS1): 8.73 µM (active)
EC50 (Protein RecA): 0.0482 µM (active)

O=[N+]([O-])c1cccc2c([As](=O)(O)O)cccc12
AC50 [1]: 16.4 µM (active)
EC50 (Protein RecA): 10.1 µM (active)

CN(c1ccccc1)S(=O)(=O)c1cc(C(=O)OCC(=O)N2CCN(C(=O)c3ccco3)CC2)ccc1Cl
AC50 [5]: 62.9 µM (active)
AC50 [6]: > 70 µM (inactive)
AC50 [7]: 30.6 µM (active)

CN(C)CCCNC(=O)c1ccccc1Oc1ccccc1
EC50 [2]: > 53 µM (inactive)
IC50 [3]: > 47.1 µM (inactive)

Cc1nn(-c2ccccc2)c(/N=C/c2ccccc2O)c1-c1ccccc1
EC50 (H4): 48.4 µM (active)
EC50 [8]: 45.7 µM (active)

COc1cccc(NC(=O)COC(=O)c2ccccc2C(=O)N2CCN(c3ccccc3)CC2)c1
EC50 [2]: > 53 µM (inactive)
IC50 [3]: > 47.1 µM (inactive)

Cc1n[nH]c2c1C(c1cc(Br)cs1)C(C#N)=C(N)O2 (configuration not stated)
AC50 [1]: 12.7 µM (active)
EC50 [9]: 14.6 µM (active)
EC50 (Protein RecA): 6.13 µM (active)

CNc1nc(Cl)nc(Nc2ccccc2)n1
EC50 [2]: > 53 µM (inactive)
IC50 [3]: > 47.1 µM (inactive)

Cn1c(C(=O)NCC2CCCO2)cc2oc3ccccc3c21 (configuration not stated)
EC50 (H4): 47 µM (active)
EC50 [8]: 0.289 µM (active)

COc1ccc(/C=C2/CCc3ccccc3C2=O)cc1CN1CCOCC1
EC50 (cells [10]): 0.245 µM (active)
EC50 [11]: < 0.1 µM (active)
EC50 [12]: > 60 µM (not active)

Cc1cc(NC(=O)C23CC4CC(C2)CC(n2cnc([N+](=O)[O-])n2)(C4)C3)no1
EC50 (cells [10]): 0.089 µM (active)
EC50 [11]: < 0.1 µM (active)
EC50 [12]: > 30 µM (not active)

Cc1ccc(S(=O)(=O)N2CCc3ccccc3CC2)cc1
AC50 [5]: 3.29 µM (active)
AC50 [6]: 44.8 µM (active)
AC50 [7]: 3.03 µM (active)

COc1ccc(CN2CCNC(=O)C2CC(=O)N(C)CC2CCOCC2)cc1OC (configuration not stated)
EC50 (cells [13]): > 350 µM (not active)
EC50 (cells [14]): > 350 µM (not active)

COCc1nnc(NC(=O)c2cc(Cl)ccc2OC)s1
EC50 (cells [13]): > 350 µM (not active)
EC50 (cells [14]): > 350 µM (not active)

Cc1c(C(=O)NCc2cccnc2)oc2ccccc12
EC50 [2]: > 53 µM (inactive)
IC50 [3]: > 47.1 µM (inactive)

CC(C)c1ccc(NC(=O)NC2CCCCC2)cc1
EC50 [8]: 0.114 µM (active)

COc1ccc(NC(=S)NCc2cccnc2)cc1
EC50 [2]: > 53 µM (inactive)
IC50 [3]: 9.74 µM (active)

O=C(NCCc1ccccc1)c1cc2sccc2n1Cc1ccccc1
EC50 (cells [13]): > 350 µM (not active)
EC50 (cells [14]): > 350 µM (not active)

CCc1ccc2nc(N(CCN(C)C)C(=O)c3ccc4ncsc4c3)sc2c1
EC50 (cells [10]): 0.088 µM (active)
EC50 [11]: < 0.1 µM (active)
EC50 [12]: > 60 µM (not active)

C[C@@H]1CCCCO[C@H](CN(C)Cc2ccc(Cl)c(Cl)c2)[C@H](C)CN([C@@H](C)CO)C(=O)c2cc(NC(=O)Nc3ccccc3)ccc2O1
AC50 (Paired box protein Pax-8): 8.42 µM (active)

CCOc1ccc(CN2CCCC(N3CCN(c4ccc(OC)cc4)CC3)C2)cc1 (configuration not stated)
EC50 (cells [10]): 0.042 µM (active)
EC50 [11]: < 0.1 µM (active)
EC50 [12]: > 60 µM (not active)

Cc1ccc2sc(N(CCCN(C)C)C(=O)c3ccc(S(=O)(=O)N4CCOCC4)cc3)nc2c1C
EC50 (cells [10]): 0.408 µM (active)
EC50 [11]: < 0.1 µM (active)
EC50 [12]: > 60 µM (not active)

CCCCNS(=O)(=O)c1ccc(S(=O)(=O)NCc2ccncc2)cc1
AC50 [5]: 2.4 µM (active)
AC50 [6]: 6.47 µM (active)
AC50 [7]: 23 µM (active)

Cc1n[nH]c2c1C(c1ccoc1)C(C#N)=C(N)O2 (configuration not stated)
AC50 [1]: 5.36 µM (active)
EC50 (Protein RecA): 2.25 µM (active)
